What was measured:
[1] = Inhibition of RIPK1 in mouse L929sA cells transfected with human Fas assessed as inhibition in TNF-induced necroptosis pretreated for 24 hrs followed by TNF and zVAD.fmk addition measured after 3 hrs by Hoechst 33342/propidium iodide staining-based assay
[2] = Inhibition of RIPK1 in mouse L929sA cells transfected with human Fas assessed as inhibition in TNF-induced necroptosis pretreated for 0.5 hrs followed by TNF and zVAD.fmk addition measured after 3 hrs by Hoechst 33342/propidium iodide staining-based assay
[3] = Inhibition of RIPK1 in mouse L929sA cells transfected with human Fas assessed as inhibition in TNF-induced necroptosis pretreated for 24 hrs followed by TNF and zVAD.fmk addition measured after 3 hrs by Hoechst 33342/propidium iodide staining-based assay; remark: listed apart in the source
[4] = Inhibition of RIPK1 in mouse L929sA cells transfected with human Fas assessed as inhibition in TNF-induced necroptosis pretreated for 0.5 hrs followed by TNF and zVAD.fmk addition measured after 3 hrs by Hoechst 33342/propidium iodide staining-based assay; remark: listed apart in the source
[5] = target: T1, Receptor-interacting serine/threonine-protein kinase 1 (Mus musculus, UniProt Q60855); test: (§1) Inhibition of RIPK1 in mouse L929sA cells transfected with human Fas assessed as inhibition in TNF-induced necroptosis pretreated for 24 hrs followed by TNF and zVAD.fmk addition measured after 3 hrs by Hoechst 33342/propidium iodide staining-based assay
T1 sequence (Q60855 whole entry): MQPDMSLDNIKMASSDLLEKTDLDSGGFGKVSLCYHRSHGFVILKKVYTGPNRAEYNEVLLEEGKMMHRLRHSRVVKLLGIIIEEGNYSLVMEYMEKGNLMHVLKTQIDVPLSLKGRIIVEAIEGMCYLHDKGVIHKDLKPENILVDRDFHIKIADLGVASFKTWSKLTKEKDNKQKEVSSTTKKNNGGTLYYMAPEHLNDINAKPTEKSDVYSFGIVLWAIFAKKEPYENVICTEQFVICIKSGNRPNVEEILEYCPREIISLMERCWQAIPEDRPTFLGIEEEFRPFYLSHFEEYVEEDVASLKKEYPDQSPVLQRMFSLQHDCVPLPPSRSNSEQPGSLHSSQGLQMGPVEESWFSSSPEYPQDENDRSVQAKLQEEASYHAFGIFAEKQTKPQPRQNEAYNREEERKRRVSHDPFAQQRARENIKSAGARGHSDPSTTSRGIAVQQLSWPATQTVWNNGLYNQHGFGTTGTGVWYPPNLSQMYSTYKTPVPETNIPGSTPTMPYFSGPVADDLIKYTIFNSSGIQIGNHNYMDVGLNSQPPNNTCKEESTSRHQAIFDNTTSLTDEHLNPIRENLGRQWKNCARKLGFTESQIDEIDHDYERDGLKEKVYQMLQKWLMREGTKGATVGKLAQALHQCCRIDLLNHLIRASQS

[6] = target: T1, Receptor-interacting serine/threonine-protein kinase 1; test: ChEBML_1697666
Source text: as §1

Compound	IC50 [1] [µM]	IC50 [2] [µM]	also measured
Cc1cc(Nc2cc(N3CCCCC3)nc(Nc3ccc(NC(=O)C4CC4)cc3)n2)n[nH]1	0.68	0.53	–
Cc1cc(Nc2nc(Sc3ccc(NC(=O)C4CCCCC4)cc3)nc(N3CCN(C)CC3)n2)n[nH]1	–	> 3	IC50 [3]: > 3 µM
Cc1cc(Nc2cc(N3CCN(C)CC3)nc(Nc3ccc(NC(=O)C4CC4)cc3)n2)n[nH]1	0.64	–	IC50 [4]: 1.04 µM
Cc1cc(Nc2cc(N3CCN(C)CC3)nc(Sc3ccc(NC(=O)C4CCCCC4)cc3)n2)n[nH]1	–	–	IC50 [5]: > 3 µM
Cc1cc(Nc2cc(N3CCOCC3)nc(Sc3ccc(NC(=O)C4CCCCC4)cc3)n2)n[nH]1	–	0.38	IC50 [3]: 0.36 µM
Cc1cc(Nc2cc(N3CCOCC3)nc(Sc3ccc(NC(=O)C4CC4)cc3)n2)n[nH]1	0.81	0.39	–
Cc1cc(Nc2cc(N3CCCCC3)nc(Sc3ccc(NC(=O)C4CC4)cc3)n2)n[nH]1	1.74	–	–
Cc1[nH]nc(Nc2cc(N3CCOCC3)nc(Sc3ccc(NC(=O)C4CCCCC4)cc3)n2)c1C	–	> 3	IC50 [3]: > 3 µM
Cc1[nH]nc(Nc2cc(N3CCN(C)CC3)nc(Sc3ccc(NC(=O)C4CCCCC4)cc3)n2)c1C	> 3	> 3	–
Cc1[nH]nc(Nc2cc(N3CCOCC3)nc(Nc3ccc(NC(=O)C4CC4)cc3)n2)c1C	> 3	> 3	–
Cc1[nH]nc(Nc2cc(N3CCN(C)CC3)nc(Nc3ccc(NC(=O)C4CC4)cc3)n2)c1C	> 3	> 3	–
Cc1cc(Nc2cc(N3CCCCC3)nc(Nc3ccc(NC(=O)C4CCCCC4)cc3)n2)n[nH]1	1.94	–	IC50 [6]: > 3 µM
Cc1cc(Nc2cc(N3CCN(C)CC3)nc(Nc3ccc(NC(=O)C4CCCCC4)cc3)n2)n[nH]1	1.75	0.91	–
Cc1[nH]nc(Nc2cc(N3CCCCC3)nc(Nc3ccc(NC(=O)C4CCCCC4)cc3)n2)c1C	–	> 3	IC50 [3]: > 3 µM
Cc1[nH]nc(Nc2cc(N3CCN(C)CC3)nc(Nc3ccc(NC(=O)C4CCCCC4)cc3)n2)c1C	–	–	IC50 [3]: > 3 µM
Cc1cc(Nc2nc(Sc3ccc(NC(=O)C4CC4)cc3)nc(N3CCCCC3)n2)n[nH]1	> 3	> 3	–
Cc1cc(Nc2nc(Sc3ccc(NC(=O)C4CC4)cc3)nc(N3CCOCC3)n2)n[nH]1	1.45	–	IC50 [4]: 0.7 µM
Cc1[nH]nc(Nc2nc(Sc3ccc(NC(=O)C4CC4)cc3)nc(N3CCCCC3)n2)c1C	> 3	–	–
Cc1[nH]nc(Nc2nc(Sc3ccc(NC(=O)C4CC4)cc3)nc(N3CCOCC3)n2)c1C	> 3	–	–
Cc1[nH]nc(Nc2nc(Sc3ccc(NC(=O)C4CC4)cc3)nc(N3CCN(C)CC3)n2)c1C	> 3	–	–
Cc1cc(Nc2nc(Sc3ccc(NC(=O)C4CCCCC4)cc3)nc(N3CCOCC3)n2)n[nH]1	–	> 3	IC50 [3]: 1.63 µM
Cc1[nH]nc(Nc2nc(Sc3ccc(NC(=O)C4CCCCC4)cc3)nc(N3CCCCC3)n2)c1C	–	–	IC50 [5]: > 3 µM

Compound	IC50 [1] [µM]	IC50 [2] [µM]	also measured
Cc1[nH]nc(Nc2nc(Sc3ccc(NC(=O)C4CCCCC4)cc3)nc(N3CCN(C)CC3)n2)c1C	–	–	IC50 [5]: > 3 µM
Cc1cc(Nc2nc(Nc3ccc(NC(=O)C4CC4)cc3)nc(N3CCCCC3)n2)n[nH]1	–	–	IC50 [6]: > 3 µM
Cc1cc(Nc2nc(Nc3ccc(NC(=O)C4CC4)cc3)nc(N3CCN(C)CC3)n2)n[nH]1	> 3	> 3	–
Cc1[nH]nc(Nc2nc(Nc3ccc(NC(=O)C4CC4)cc3)nc(N3CCCCC3)n2)c1C	–	> 3	IC50 [3]: > 3 µM
Cc1[nH]nc(Nc2nc(Nc3ccc(NC(=O)C4CC4)cc3)nc(N3CCOCC3)n2)c1C	–	> 3	IC50 [3]: > 3 µM
Cc1cc(Nc2nc(Nc3ccc(NC(=O)C4CCCCC4)cc3)nc(N3CCCCC3)n2)n[nH]1	> 3	> 3	–
Cc1cc(Nc2nc(Nc3ccc(NC(=O)C4CCCCC4)cc3)nc(N3CCOCC3)n2)n[nH]1	–	> 3	IC50 [3]: > 3 µM
Cc1cc(Nc2nc(Nc3ccc(NC(=O)C4CCCCC4)cc3)nc(N3CCN(C)CC3)n2)n[nH]1	> 3	–	–
Cc1[nH]nc(Nc2nc(Nc3ccc(NC(=O)C4CCCCC4)cc3)nc(N3CCOCC3)n2)c1C	–	–	IC50 [5]: > 3 µM
Cc1[nH]nc(Nc2nc(Nc3ccc(NC(=O)C4CCCCC4)cc3)nc(N3CCN(C)CC3)n2)c1C	–	–	IC50 [5]: > 3 µM
CCN1CCN(c2cc(Nc3n[nH]c(C)c3C)nc(Sc3ccc(NC(=O)C4CC4)cc3)n2)CC1	> 3	> 3	–
Cc1[nH]nc(Nc2cc(N3CCCCC3)nc(Nc3ccc(NC(=O)C4CC4)cc3)n2)c1C	–	–	IC50 [5]: > 3 µM
Cc1[nH]nc(Nc2cc(N3CCOCC3)nc(Nc3ccc(NC(=O)C4CCCCC4)cc3)n2)c1C	> 3	> 3	–
Cc1[nH]nc(Nc2nc(Sc3ccc(NC(=O)C4CCCCC4)cc3)nc(N3CCOCC3)n2)c1C	–	–	IC50 [3]: > 3 µM
Cc1[nH]nc(Nc2nc(Nc3ccc(NC(=O)C4CCCCC4)cc3)nc(N3CCCCC3)n2)c1C	–	–	IC50 [5]: > 3 µM
Cc1cc(Nc2nc(Sc3ccc(NC(=O)C4CCCCC4)cc3)nc(N3CCCCC3)n2)n[nH]1	> 3	> 3	–
Cc1cc(Nc2nc(Nc3ccc(NC(=O)C4CC4)cc3)nc(N3CCOCC3)n2)n[nH]1	2.64	–	IC50 [4]: 1.06 µM
Cc1[nH]nc(Nc2nc(Nc3ccc(NC(=O)C4CC4)cc3)nc(N3CCN(C)CC3)n2)c1C	–	> 3	IC50 [3]: > 3 µM
Cc1cc(Nc2cc(N3CCCCC3)nc(Sc3ccc(NC(=O)C4CCCCC4)cc3)n2)n[nH]1	5.04	1.75	–
Cc1[nH]nc(Nc2cc(N3CCCCC3)nc(Sc3ccc(NC(=O)C4CCCCC4)cc3)n2)c1C	> 3	–	–
Cc1cc(Nc2cc(N3CCOCC3)nc(Nc3ccc(NC(=O)C4CCCCC4)cc3)n2)n[nH]1	1.5	0.64	–
Cc1cc(Nc2nc(Sc3ccc(NC(=O)C4CC4)cc3)nc(N3CCN(C)CC3)n2)n[nH]1	1.14	> 3	–
